Columns and labels:
Assay type in all cases: toxicity, cell-based
U2OS = test: Incucyte cell viability with U2OS; details: human, 10 µM, compound concentration 10 uM
HEK-293T = test: Incucyte cell viability with HEK293T; details: human, 10 µM, compound concentration 10 uM
Fibroblast = test: Incucyte cell viability with human fibroblast; details: 10 µM, compound concentration 10 uM
[1] = 0 h, replicate number 1, timepoint 0 hours
[2] = 6 h, replicate number 2, timepoint 6 hours
[3] = 12 h, replicate number 1, timepoint 12 hours
[4] = 18 h, replicate number 1, timepoint 18 hours
[5] = 24 h, replicate number 1, timepoint 24 hours
[6] = 0 h, replicate number 2, timepoint 0 hours
[7] = 6 h, replicate number 1, timepoint 6 hours
[8] = 12 h, replicate number 2, timepoint 12 hours
[9] = 18 h, replicate number 2, timepoint 18 hours
[10] = 24 h, replicate number 2, timepoint 24 hours
Further: filed as whole numbers so only -1 and 0 and 1 occur.

| Structure (SMILES) | Growth Rate (U2OS; [1]) | Growth Rate (U2OS; [2]) | Growth Rate (U2OS; [3]) | Growth Rate (U2OS; [4]) | Growth Rate (U2OS; [5]) | Growth Rate (HEK-293T; [1]) | Growth Rate (HEK-293T; [6]) | Growth Rate (HEK-293T; [7]) | Growth Rate (HEK-293T; [3]) | Growth Rate (HEK-293T; [4]) | Growth Rate (HEK-293T; [5]) | Growth Rate (Fibroblast; [1]) | Growth Rate (Fibroblast; [2]) | Growth Rate (Fibroblast; [3]) | Growth Rate (Fibroblast; [4]) | Growth Rate (Fibroblast; [9]) | Growth Rate (Fibroblast; [5]) | Growth Rate (U2OS; [7]) | Growth Rate (Fibroblast; [7]) | Growth Rate (U2OS; [10]) | also measured |
| --- | --- | --- | --- | --- | --- | --- | --- | --- | --- | --- | --- | --- | --- | --- | --- | --- | --- | --- | --- | --- | --- |
| COC(=O)C(Cc1ccc(OCCn2c(=O)sc3cc(C(=O)c4ccccc4)ccc32)cc1)C(=O)OC | 0 | 1 | 1 | 1 | 1 | 1 | 0 | 0 | 0 | 0 | 0 | 0 | 0 | 1 | 1 | 0 | 1 |  |  |  | Growth Rate (Fibroblast; [8]): 0 |
| CCOC(=O)c1cc2cc(-c3cc(C(=O)NCc4ccc(C(=O)O)cc4)nn3C)ccc2[nH]1 [BI 4394] |  |  | 1 | 0 | 1 | 0 |  |  | 1 | 0 | 0 | 1 |  | 1 | 1 |  | 1 | 1 | 0 |  | Growth Rate (U2OS; [6]): 0; Growth Rate (U2OS; [9]): 1; Growth Rate (HEK-293T; [9]): 1; Growth Rate (Fibroblast; [6]): 0; Growth Rate (Fibroblast; [8]): 0 |
| COc1cc(C(=O)NS(=O)(=O)c2ccccc2C)ccc1Cc1cn(C)c2ccc(NC(=O)OC3CCCC3)cc12 [ZAFIRLUKAST] | 0 | 1 | 1 | 1 | 1 | 0 |  | 1 | 1 | 1 | 1 | 0 | 0 | 0 | 1 | 0 | 0 |  | 1 |  | Growth Rate (HEK-293T; [8]): 0; Growth Rate (HEK-293T; [9]): 0; Growth Rate (HEK-293T; [10]): 0 |
| O=C(Nc1ccc(Oc2ccc(F)cc2)cc1)N1CCc2ncccc2[C@H]1c1ccc(F)cc1 [BAY-897] | 0 |  | 1 | 1 | 1 | 0 |  | 0 | 0 | 0 | 0 | 0 | 0 | 1 | 1 |  | 1 |  | 1 |  |  |
| Cc1cnc(-c2cc(Cl)ccc2F)cc1-n1c(=O)n(CC(N)=O)c2ccccc21 [Al11] | 0 | 0 | 1 | 1 | 1 | 0 | 1 |  |  | 1 | 1 | 0 |  | 1 | 0 |  | 1 | 1 | 1 |  | Growth Rate (U2OS; [8]): 0; Growth Rate (HEK-293T; [2]): 0; Growth Rate (HEK-293T; [8]): 1; Growth Rate (Fibroblast; [10]): 0 |
| CN(C)C(=O)Cn1cc(-c2nc([C@@](C)(c3ccc(-c4cnc(N)nc4)cc3)C3CC3)no2)cn1 [BI 665915] | 0 | 1 | 1 | 0 | 1 | 0 | 1 | 0 | 0 | 0 | 0 | 1 |  | 1 | 0 | 1 | 0 | 0 | 1 | 0 | Growth Rate (HEK-293T; [8]): 1; Growth Rate (HEK-293T; [9]): 1; Growth Rate (HEK-293T; [10]): 1; Growth Rate (Fibroblast; [10]): 1 |
| Nc1ncnc2c1ccn2[C@@H]1O[C@H]([C@H](O)c2ccccc2)[C@@H](O)[C@H]1O | 0 |  | 0 | 0 | 0 |  | 1 | 1 |  | 1 | 1 |  | 1 |  | 1 |  | 1 | 0 |  | 1 | Growth Rate (U2OS; [8]): 1; Growth Rate (U2OS; [9]): 1; Growth Rate (HEK-293T; [8]): 1; Growth Rate (Fibroblast; [6]): 0; Growth Rate (Fibroblast; [8]): 0; Growth Rate (Fibroblast; [10]): 0 |
| Cc1csc(NC(=O)c2cc(F)cc(Oc3cncnc3)c2)n1 |  | 0 | 0 | 0 | 0 | 0 |  | 1 | 0 | 1 | 1 | 0 |  | 0 | 1 | 0 | 1 | 1 | 0 | 1 | Growth Rate (U2OS; [9]): 1; Growth Rate (HEK-293T; [8]): 1; Growth Rate (HEK-293T; [9]): 0; Growth Rate (HEK-293T; [10]): 0; Growth Rate (Fibroblast; [10]): 0 |
| O=C1CCc2cc(Nc3cc(OC4CCOCC4)c([N+](=O)[O-])cc3Cl)ccc2N1 | 0 | 1 | 0 | 0 | 0 | 0 | 1 |  |  |  |  |  |  | 0 | 0 |  | 0 | 0 | 0 | 1 | Growth Rate (U2OS; [8]): 1; Growth Rate (HEK-293T; [2]): 1; Growth Rate (HEK-293T; [8]): 1; Growth Rate (HEK-293T; [10]): 1; Growth Rate (Fibroblast; [6]): 0; Growth Rate (Fibroblast; [8]): 1 |
| CCOc1cn(-c2ccc(F)cc2C)nc1C(=O)Nc1ccc(Oc2ccnc3cc(OC)c(OC)cc23)c(F)c1 |  |  | 1 | 1 | 1 | 0 |  | 1 |  |  | 1 | 1 | 1 | 0 | 0 | 1 | 0 |  | 0 |  | Growth Rate (HEK-293T; [2]): 0; Growth Rate (HEK-293T; [8]): 0; Growth Rate (HEK-293T; [9]): 1; Growth Rate (HEK-293T; [10]): 0; Growth Rate (Fibroblast; [8]): 1; Growth Rate (Fibroblast; [10]): 1 |
| O=C(N[C@@H](C1CC1)C(F)(F)F)c1cc(-c2cnn3cc(-c4ccc(F)cc4)cnc23)cs1 |  |  | 0 | 0 | 1 | 0 | 1 |  |  |  |  | 0 |  | 1 | 1 |  | 1 | 0 | 1 | 0 | Growth Rate (U2OS; [6]): 1; Growth Rate (HEK-293T; [2]): 1; Growth Rate (HEK-293T; [8]): 1; Growth Rate (HEK-293T; [10]): 1 |
| COCCOc1nc(-c2ccc(Cl)nc2)nc2c1CN(C(=O)c1ncn3ccccc13)CC2 [THPP-1] | 0 | 1 | 1 | 0 | 0 | 0 | 1 |  |  | 1 | 1 | 0 |  | 1 | 1 | 0 | 1 | 0 | 0 |  | Growth Rate (HEK-293T; [2]): 0; Growth Rate (HEK-293T; [8]): 0; Growth Rate (HEK-293T; [10]): 0; Growth Rate (Fibroblast; [8]): 0; Growth Rate (Fibroblast; [10]): 0 |
| O=C(O)C1CN(Cc2ccc(-c3nc4cc(Cc5ccccc5F)ccc4s3)c(F)c2)C1 | 0 | 0 | 1 | 0 | 1 | 1 | 0 | 0 | 0 | 0 | 0 | 0 | 0 | 1 | 1 |  | 1 |  | 1 | 0 | Growth Rate (U2OS; [8]): 0; Growth Rate (U2OS; [9]): 1 |
| COc1ccc(-c2ccc3cc(C(=O)O)ccc3c2)cc1C12CC3CC(CC(C3)C1)C2 | 0 | 0 | 1 | 0 | 0 | 0 |  | 1 | 0 | 0 | 0 | 1 |  | 0 | 0 | 1 | 0 |  | 0 |  | Growth Rate (U2OS; [8]): 0; Growth Rate (HEK-293T; [2]): 0; Growth Rate (HEK-293T; [9]): 1 |
| COc1ccc(S(=O)(=O)N2c3ccc(Cl)cc3[C@](O)(c3ccccc3Cl)[C@@H]2C(=O)N2CCC[C@H]2C(N)=O)cc1OC [RELCOVAPTAN] |  | 0 | 0 | 0 | 0 | 1 | 0 | 0 | 0 | 0 | 0 | 0 |  | 0 | 0 |  | 0 | 1 | 0 | 1 | Growth Rate (Fibroblast; [6]): 1 |
| O=C(Cc1ccccc1)Nc1nc2ccc(Cl)cc2c2nc(-c3ccco3)nn12 | 0 | 0 | 1 | 1 | 1 | 1 | 0 | 0 | 0 | 0 | 0 | 0 | 0 | 0 | 0 | 1 | 0 |  |  | 0 | Growth Rate (U2OS; [8]): 0; Growth Rate (U2OS; [9]): 0; Growth Rate (HEK-293T; [2]): 1; Growth Rate (Fibroblast; [6]): 1; Growth Rate (Fibroblast; [8]): 1; Growth Rate (Fibroblast; [10]): 1 |
| COc1ccc(S(=O)(=O)c2cc(OC)ccc2S(=O)(=O)c2ccc([C@H](C)NS(C)(=O)=O)cc2)cc1 | 0 | 0 | 0 | 1 | 1 | 1 | 0 | 0 | 1 | 1 | 1 | 0 | 0 |  |  | 1 | 1 |  |  | 0 | Growth Rate (U2OS; [8]): 1; Growth Rate (U2OS; [9]): 0; Growth Rate (HEK-293T; [2]): 1; Growth Rate (Fibroblast; [6]): 1; Growth Rate (Fibroblast; [8]): 1 |
| CC(C)Oc1ccc(-c2c[nH]cc2CN(C)CCN)cc1 | 0 |  | 1 | 0 | 0 | 0 | 1 |  |  |  |  | 0 | 0 |  | 1 | 0 | 1 | 0 |  | 1 | Growth Rate (U2OS; [9]): 1; Growth Rate (HEK-293T; [10]): 1; Growth Rate (Fibroblast; [8]): 0; Growth Rate (Fibroblast; [10]): 0 |
